The text on data set [1]:
Mouse experiments: All experiments were approved by Institutional Animal Care and Use Committee of South Dakota State University. Nine-week-old C57BL/6J male mice were purchased from The Jackson Laboratory. Group 1 mice were fed with normal diet (ND, D12450Bi, Research Diets Inc. New Brunswick, N.J., USA) for 9 weeks, group 2 mice were fed with ND for 6 weeks and then high-fat diet (FD, D12451i, Research Diets Inc. New Brunswick, N.J., USA) for 3 weeks. The mice were maintained according to The Jackson Laboratory guidelines for animal care and housed at 22±2° C. temperature, 55±5% relative humidity, with a light/dark cycle of 12 hours. Food (group 1 with normal fat diet and group 2 with high-fat diet until sacrifice) and water were provided ad libitum. […] Six mice per subgroup were obtained finally. […] Blood samples were collected from the hearts of anesthetized mice after feeding and treatment for 36 days following fast for 16 hours. When sacrificed, mouse liver, kidney, spleen and epididymal fat tissues were dissected and weighed. Epididymal fat tissues were immediately frozen in liquid nitrogen and stored at −80° C.

In the next data set the test system is C/EBPα. Nature of the data set: Real-Time RT-PCR, C/EBPα mRNA in epididymal fat of FD mice. It counts as in vivo, mouse. On the procedure:
RNA and protein purification and quantification from epididymal fat tissues: RNA and protein was isolated from 60 mg of epididymal fat tissues with Trizol (Invitrogen, Carlsbad, Calif., USA) following the protocol recommended by the manufacturers. RNA was dissolved in pure water and quantified at 260/280 nm, and sample integrity was checked by 1.5% agarose gel electrophoresis. Protein concentration was determined using the Micro BCA Protein Assay Kit (Fisher Scientific, Pittsburgh, Pa., USA) according to the manufacturer's instructions.
Quantitative Real-Time RT-PCR: Real-Time reverse transcriptase polymerase chain reaction (RT-PCR) analysis was used to measure mRNA expression of genes PPARγ, C/EBPα, GATA-2 and GATA-3 in the control of β-actin. Total RNA (0.8 μg) from each sample was used for a reverse transcription reaction using the TaqMan Reverse Transcription Reagents (Applied Biosystems, Foster City, Calif., USA) following the manufacturer's instructions. PCR was done using the SYBR green Master Mix (Applied Biosystems, Foster City, Calif., USA) following the manufacturer's instructions. The cycling conditions of amplification were as follows: an initial step of denaturation at 95° C. for 10 min, 40 cycles of denaturation at 95° C. for 30 s, annealing at 55° C. for 30 s, and elongation at 72° C. for 30 s. Real-Time PCR was performed using Mx3000P Real-Time Thermocyclers (Stratagene, La Jolla, Calif., USA). The relative mRNA levels of these genes were calculated by 2-delta delta CT method and normalized with control-treated groups.
For orientation: Quantitative PCR measures a nucleic acid by following its amplification.

The next data set relates to GATA-3. The experiment in a line: Immunoblot, GATA-3 protein in 3T3-L1 cells. The data set is classed as cell-based, mouse. As to conditions: DM + 1, 2, 4, 8 μM, 8 days, p<0.05. On the procedure:
Immunoblot Analysis: GATA-2 and GATA-3 protein expression were assessed by Western blot. […] The cells were washed twice with PBS, lysed in a lysis buffer (HEPES-Tx-PI buffer: 10 mM HEPES, 5 mM EDTA, 350 mM Sucrose, 1 ug/ml leupeptin, 1 ug/ml pepstatin, 1% Triton-X, 1 mM PMSF, diluted in water), processed with a 25G needle and centrifuged at 10,000 rpm for 5 min. Protein concentration was determined using the […] according to the Pierce Protein Assay Protocol. Total protein (50 μg) was used for GATA-2 and GATA-3 analysis and was separated by electrophoresis using BioRad Electrophoretic System (60 V for 1 hour followed by 90 V for 5 hours). The protein was then transferred to nitrocellulose membranes at 35 V overnight. The membrane was blocked for 1 hour at room temperature in 5% nonfat milk in Tris-buffered saline (TBS), then washed with Tween-20-TBS (TTBS, 0.1% Tween-20) three times (15 min, 5 min, 5 min), followed by incubation with primary antibodies of GATA-2 (dilution 1:500), GATA-3 (dilution 1:500), β-Actin (dilution 1:1000) at room temperature for 2 hours. The membrane was rinsed three times (15 min, 5 min, 5 min), then incubated at room temperature for 1 hour with Horseradish peroxidase-conjugated second antibody (1:10,000). The membrane was then incubated in ECL reagent for 1 minute. Protein was visualized using UVP image analysis system.
(In general: In western blotting, separated proteins are transferred to a membrane and probed.)

Data set [2] is described as follows: Body weight gain, high-fat diet-induced obesity mice and normal diet mice. The data set is classed as in vivo, mouse. The source says: Six mice per subgroup were obtained finally.
For the next data set, the system named is 3T3-L1 cells. Nature of the data set: MTT assay, 3T3-L1 viability during differentiation with clozapine, risperidone, berberine (Example 2). It counts as cell-based, mouse. As to conditions: day 8. On the procedure: Cell culture and drug treatment: 3T3-L1 cells (American Type Culture Collection, Manassas, Va., USA) were cultured at 37° C. in a humidified 5% CO2 atmosphere and grown in a DMEM (Sigma-Aldrich, St. Louis, Mo. USA) supplemented with 10% Fetal Bovine Serum (FBS, Atlanta Biologicals Corp., Lawrenceville, Ga., USA), 100 units/ml penicillin and 100 μg/ml streptomycin. Differentiation was induced by addition of 167 nM insulin, 520 μM isobutylmethylxanthine (IBMX), and 1 μM dexamethasone for 2 days and then only with 167 nM insulin for 6 days. Detailed protocol was described as our previous report (Hu et al., Phytomedicine (2009) 16(9):864-873).
Medium was removed after differentiation and treatment for 8 days, MTT (Methylthiazolyldiphenyl—tetrazolium bromide 0.5 mg/ml, 50 μl/well) was added.

Experimental findings from patent publication US20110281852A1 (priority 2010, published 2011) are described below.

`COc1ccc2cc3[n+](cc2c1OC)CCc1cc2c(cc1-3)OCO2.[Cl-]` [berberine, Berberine (Chloride Form)]: in data set [1] (ND mice), the “liver weight, berberine vs control treated subgroup” value is recorded as “no significant difference”. Further, the “toxicity to FD mice organs or to ND mice” value in data set [1] (up to 3 mg/kg/day i.p., 36 days) was “did not appear to exhibit any obvious toxicity”. Further, the “decrease of C/EBP-α mRNA expression vs control group” value in the data set on C/EBPα (0.75 mg/kg/day) is listed as 46.4%; in the data set with C/EBPα (1.5 mg/kg/day) it was 66.1%; with C/EBPα (3 mg/kg/day) it was 72.7%. Further, the GATA-3 protein expression entry in the data set on GATA-3 was “increase”. Moreover, the body weight gain was 1.5±0.7 g/mouse in data set [2] (FD mice, 0.75 mg/kg/day i.p., 36 days (control 4.3±0.6)); 1.9±0.7 g/mouse in data set [2] (FD mice, 1.5 mg/kg/day i.p., 36 days); 1.4±0.5 g/mouse in data set [2] (FD mice, 3 mg/kg/day i.p., 36 days); 2.5±0.7 g/mouse in data set [2] (ND mice, 3 mg/kg/day i.p., 36 days (control 2.3±0.9)). Moreover, the “decrease of cell viability vs no berberine treated group” value came out at 22.3% in the data set on 3T3-L1 cells (8 μM berberine combined with 0 μM clozapine); 17.8% in the data set with 3T3-L1 cells (8 μM berberine combined with 0 μM risperidone); 16.5% in the data set on 3T3-L1 cells (8 μM berberine combined with 15 μM clozapine); 19.5% in the data set with 3T3-L1 cells (8 μM berberine combined with 25 μM risperidone); 15% in the data set with 3T3-L1 cells (8 μM berberine combined with 30 μM clozapine); 20.2% in the data set on 3T3-L1 cells (8 μM berberine combined with 50 μM risperidone).
